Common to all, as to assay type: cell-based
Data set [1] has as its system CGRP induced-release on peptidergic sensory neurons (dorsal root ganglia). Put plainly: Inhibition of capsaicin-induced CGRP release on cultured sensory neurons (CGRP EIA). Particulars: 1 hour, 1 μM capsaicin 10 min. Here is the method:
The induction of the release of calcitonin-gene related peptide (CGRP) with capsaicin enables direct measurement of neuronal exocytosis (Meng J. et al., J. Cell. Sci. (2007) 15; 120(Pt 16):2864-74, and Meng J. et al., Mol. Neurobiol. (2014); 50(2):574-88).
The tested peptides were evaluated by measuring their capability of inhibiting CGRP induced-release on peptidergic sensory neurons. Dorsal root ganglia were seeded (50.000 cells/well) in a 96-well plate previously coated with poly-L-lysine and laminin. After 48 hours seeding, cells were incubated with Hank's Balanced salt solution containing peptides of invention at 20, 50 or 100 μM for 1 hour. Next, cells were stimulated for 10 min with 1 μM capsaicin at 37° C. Then, CGRP content was determined in supernatants using colorimetric based CGRP EIA (Spi-Bio Inc) following manufacturer's instructions. Absorbance measurements (405 nm) were standardized with regard to the maximum signal detected with capsaicin stimulation in vehicle treated cells. Inhibition values of CGRP release were calculated as percentages by considering maximum signal to capsaicin-induced release and minimum as non-stimulated cells. Table D details inhibition values of […] obtained for the peptides of invention.

The subject of data set [2] is human dermal fibroblasts (HDFa). Put plainly: MTT cell viability assay on dermal fibroblasts. As to conditions: for % inhibition cell viability: HDFa, 24 hours. On the procedure: (§1) This example evaluated effects of the peptides of invention on human epidermal keratinocytes and dermal fibroblasts. Cell viability was determined with the 3-(4,5-dimethyl-2-thiazolyl)-2,5-diphenyl-2H-tetrazolium bromide (MTT) assay. The MTT assay is a colorimetric reaction based on the capacity of the mitochondrial dehydrogenase enzyme to break and transform the tetrazolium rings of MTT. Epidermal keratinocytes (HEKa) were seeded in a previously coated 96 well-plate at 50-60% confluence in 100 μL of supplemented corresponding medium. Dermal fibroblasts (HDFa) were seeded in a 96 well-plate at 70% confluence in 100 μL supplemented medium. For both cell lines, 24 hours after seeding, medium was replaced by fresh supplemented medium containing peptides dissolved at concentration range between 0.1 and 200 μM. All test substances were incubated for 24 hours at 37° C. and 5% CO2. Afterwards, medium was replaced by 0.5 mg/ml of MTT solution for 4 hours in complete medium. Then, medium was carefully removed and 150 μL/well of DMSO were added to solubilize formazan crystals. Plate was protected from light, shaken for 60 seconds and optical density was measured at 570 nm with a reference filter of 620 nm. Table F details effects of peptides of invention on keratinocytes and fibroblasts cell viability expressed as percentage of inhibition.
A general note: Formazan colour is commonly taken as a measure of viable cells.

Data set [3] deals with human epidermal keratinocytes (HEKa). Put plainly: MTT cell viability assay on epidermal keratinocytes. As to conditions: for % inhibition cell viability: HEKa, 24 hours. Here is the method: as §1
Data set [4] deals with acetylcholine release, human neuroblastoma cell line differentiated to cholinergic neuronal phenotype. Put plainly: Inhibition of KCl-induced acetylcholine release in a neuroblastoma cell line (Amplex Red). As to conditions: 50 mM KCl. On the procedure:
To determine the compound of the invention effects on acetylcholine release, a human neuroblastoma cell line (50.000 cells/well) was used. Cells were differentiated to cholinergic neuronal phenotype for 4 days. Then, cells were pre-incubated for 60 minutes with the compounds (between 0.1 and 100 μM) as acetyl- or palmitoyl-form and conjugated with trifluoroacetate (TFA) or acetate salt. Afterwards, acetylcholine release was induced by membrane depolarization evoked by 15 minutes incubation with 50 mM KCl. Acetylcholine level in supernatants was quantified by using Amplex® Red Acetylcholine Assay Kit (Thermofisher) following manufacturer's instructions. […] Fluorescence (Ex 530 nm/Em 590 nm) was measured in FluorStar equipment. Acetylcholine content was normalized to the total protein content using BCA assay (Pierce) following manufacturer's instructions. Fluorescence measurements were normalized to the maximum signal detected with KCl stimulation in vehicle treated cells. Vesicle exocytosis disruption by the compounds of the invention lead to a decrease of acetylcholine release (Table E).

Here are results for three molecules from patent US12377035B2, “Peptides for inhibiting cholinergic calcitonin gene-related peptide (CGRP) and acetylcholine (ACH) release or inhibiting sensitization-mediated by TRPV1-mediated excitability in sensory neurons and methods of use thereof” (AZIENDE CHIMICHE RIUNITE ANGELINI FRANCESCO—A.C.R.A.F. …, priority 2018, dated 2025).

Residues, ends and D or L forms follow the SMILES beside them. *: point of attachment. Palmitoyl = CCCCCCCCCCCCCCCC(=O)*

In the case of `CCCCCCCCCCCCCCCC(=O)N[C@@H](CCSC)C(=O)N[C@@H](CCC(N)=O)C(=O)N[C@H](C(=O)N[C@@H](Cc1c[nH]c2ccccc12)C(=O)N[C@@H](CC(C)C)C(=O)N[C@@H](CCCNC(=N)N)C(=O)N[C@@H](CCSC)C(=O)N[C@@H](Cc1c[nH]c2ccccc12)C(=O)N[C@H](C(=O)N[C@@H](CC(=O)O)C(=O)N[C@@H](Cc1ccc(O)cc1)C(=O)N[C@@H](CCCNC(=N)N)C(=O)N[C@@H](C)C(=O)N[C@H](C(N)=O)[C@@H](C)O)[C@@H](C)CC)C(C)C` [SEQ ID NO: 2 palmitoyl, MQVWLRMWIDYRAT] (Palmitoyl-MQVWLRMWIDYRAT-NH2), the “% CGRP release inhibition” value in data set [1] (peptide 20 μM) is reported as 35.5%; in data set [1] (peptide 50 μM), 53.9%. Besides, the “% inhibition cell viability” value in data set [2] (0.1 μM) stood at 30.8%; in data set [2] (0.5 μM), 42.9%; in data set [2] (1 μM), 45.8%; in data set [2] (5 μM), 47.3%; in data set [2] (10 μM), 47.1%; in data set [2] (50 μM), 35.3%. In addition, the “% inhibition cell viability” value in data set [3] (0.1 μM) amounted to 12.1%; in data set [3] (0.5 μM), 20.9%; in data set [3] (1 μM) it was 25.6%; in data set [3] (5 μM), 36.9%; in data set [3] (10 μM), 36.5%; in data set [3] (50 μM) it was 32.5%. For the same molecule, the “% Ach release inhibition” value in data set [4] (TFA salt, 5 μM) is listed as −46.1%; in data set [4] (TFA salt, 10 μM) it was −35.1%; in data set [4] (TFA salt, 50 μM), 20.6%.

In the case of “Ac-MQVWLRMWIDYRAT-NH2 [SEQ ID NO: 2 acetyl, MQVWLRMWIDYRAT]”, the “% CGRP release inhibition” value amounted to 49.3% in data set [1] (peptide 20 μM) and 55.3% in data set [1] (peptide 100 μM). For the same molecule, the “% inhibition cell viability” value was found to be 10.1% in data set [2] (1 μM); 12.3% in data set [2] (5 μM); 8.5% in data set [2] (10 μM); 1.4% in data set [2] (50 μM); 7.8% in data set [2] (100 μM); 24.6% in data set [2] (200 μM). Besides, the “% inhibition cell viability” value is given as −1.2% in data set [3] (1 μM); −1.8% in data set [3] (5 μM); −0.5% in data set [3] (10 μM); −4.6% in data set [3] (50 μM); −0.7% in data set [3] (100 μM); 1.2% in data set [3] (200 μM). Moreover, the “effect on cell viability (in words)” value in data set [2] (dermal fibroblast, up to 200 μM) was “did not modify cell viability”; in data set [3] (human epidermal keratinocytes, up to 200 μM) it was “did not modify cell viability”. Besides, the “% Ach release inhibition” value in data set [4] (Acetate salt, 1 μM) was found to be 41.0%; in data set [4] (Acetate salt, 10 μM), 55.8%; in data set [4] (TFA salt, 5 μM), 76.2%; in data set [4] (TFA salt, 10 μM), 78.8%; in data set [4] (TFA salt, 20 μM), 10.9%.

Regarding “Ac-LRVQMVNMFL-NH2 [SEQ ID NO: 4 acetyl, LRVQMVNMFL]”, the “% CGRP release inhibition” value was 14.2% in data set [1] (peptide 20 μM) and 77.4% in data set [1] (peptide 100 μM). The “% inhibition cell viability” value worked out at 14.5% in data set [2] (1 μM); 28.4% in data set [2] (5 μM); 37.1% in data set [2] (10 μM); 40.6% in data set [2] (50 μM); 41.5% in data set [2] (100 μM); 22.9% in data set [2] (200 μM). Further, the “% inhibition cell viability” value came to 13.6% in data set [3] (1 μM); 2.6% in data set [3] (5 μM); 6.0% in data set [3] (10 μM); 19.5% in data set [3] (50 μM); 31.6% in data set [3] (100 μM); 41.1% in data set [3] (200 μM). The “effect on keratinocyte viability (in words)” value in data set [3] (assessed below 50 μM) was “did not modify keratinocyte viability”. In addition, the “% Ach release inhibition” value in data set [4] (Acetate salt, 0.1 μM) is given as “around 40%”; in data set [4] (TFA salt, 10 μM), 84.3%; in data set [4] (TFA salt, 50 μM) it was 58.9%; in data set [4] (TFA salt, 100 μM) it was 6.8%.
